Reference: patent US20050058600A1, “3,3'-Diindolylmethane antiandrogenic compositions” (priority 2003, published 2005)

Tests used:
[1] = tested on: GFP-AR; assay: Fluorescence imaging of GFP-AR in transfected PC-3 cells; format: cell-based
Method: (§1) Transient Transfections with Reporters and Luciferase Assay. LNCaP and PC-3 cells were transfected, with some modifications, as previously described (20). For AR transactivation, cells were transfected with 0.1 μg of MMTV-Luc or pPSA-Luc per plate. Co-transfection experiments with pCMV-hAR or pCMV-GFP-rAR, 0.1 μg per plate was also used. For experiments involving GFP fluorescence imaging, treatments were not added until 30 h after transfection.
Fluorescence Imaging. PC-3 cells were plated on cover slips in six-well culture plates at 1.5×10^5 cells per well in 5% DCC-FBS-DMEM medium. Cells were co-transfected with pCMV-GFP-rAR and pPSA-Luc or MMTV-Luc as indicated above. Cover slips were placed on microscope slides and images were taken at 1000×.

[2] = tested on: PSA protein; assay: Western blot of intracellular and secreted PSA in LNCaP cells; format: cell-based, human; conditions: DHT co-treatment
Method: Analysis of Intracellular and Secreted PSA. LNCaP cells growing on 100 mm plates were treated for 24 h. Cells were lysed as previously described (20) for intracellular PSA analysis. For secreted proteins, spent medium was collected and concentrated 18-fold using Millipore Centriprep YM-10 following manufacturer's protocol (Bedford, Mass.). Protease inhibitors were added and the proteins were immunoprecipitated with 3 μg/mL monoclonal free PSA antibody (Biodesign International) for 2 h and co-immunoprecipitated overnight at 4° C. with Protein A/G agarose (Santa Cruz Biotechnology, Santa Cruz, Calif.) on a rotator. The samples were then subjected to Western blot analysis as described previously (20) using a monoclonal PSA (sc-7316) primary antibody and a goat anti-mouse-IgG-AP secondary antibody.

[3] = target: T1, AR (Homo sapiens, UniProt P10275); assay: pPSA-Luc / MMTV-Luc reporter assay in PC-3 cells with or without AR expression vector; format: cell-based; conditions: PC-3 co-transfected with AR expression vector; pPSA-Luc, same with MMTV-Luc
T1 construct: expressed in transfected cells; host or cells: PC-3
T1 sequence (P10275 1-920): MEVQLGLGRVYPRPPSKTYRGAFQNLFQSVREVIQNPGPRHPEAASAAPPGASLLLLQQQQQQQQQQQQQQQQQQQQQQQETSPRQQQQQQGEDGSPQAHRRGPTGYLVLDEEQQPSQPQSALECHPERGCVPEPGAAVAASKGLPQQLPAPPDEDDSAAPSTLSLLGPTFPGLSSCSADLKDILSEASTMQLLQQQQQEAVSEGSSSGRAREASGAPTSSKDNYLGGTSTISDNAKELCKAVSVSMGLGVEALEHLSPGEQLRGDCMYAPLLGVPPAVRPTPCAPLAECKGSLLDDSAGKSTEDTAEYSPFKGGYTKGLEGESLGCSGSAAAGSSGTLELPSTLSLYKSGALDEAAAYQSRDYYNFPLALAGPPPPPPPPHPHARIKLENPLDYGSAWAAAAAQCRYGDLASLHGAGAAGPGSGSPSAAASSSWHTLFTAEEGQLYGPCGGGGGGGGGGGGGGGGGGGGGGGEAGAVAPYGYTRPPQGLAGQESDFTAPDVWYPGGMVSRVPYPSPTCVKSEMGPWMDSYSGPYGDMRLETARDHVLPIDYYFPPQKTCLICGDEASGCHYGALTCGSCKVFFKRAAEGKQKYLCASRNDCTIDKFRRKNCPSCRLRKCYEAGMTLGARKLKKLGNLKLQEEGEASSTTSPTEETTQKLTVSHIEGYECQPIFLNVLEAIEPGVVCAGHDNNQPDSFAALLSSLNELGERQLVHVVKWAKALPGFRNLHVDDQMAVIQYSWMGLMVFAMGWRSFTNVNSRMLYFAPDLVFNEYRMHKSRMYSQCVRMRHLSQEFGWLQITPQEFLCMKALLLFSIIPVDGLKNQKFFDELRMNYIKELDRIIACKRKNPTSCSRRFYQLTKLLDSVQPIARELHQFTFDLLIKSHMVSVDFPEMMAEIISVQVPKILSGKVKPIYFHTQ
Method: Plasmid Reporters and Expression Vectors. The ARE responsive luciferase reporter plasmid, pPSA-630 luciferase (pPSA-Luc) was prepared as previously described (29). pPSA-Luc contains the PSA promoter region (−630 to 12) with three AREs, all of which are critical to the activity of the pPSA-Luc promoter. The MMTV-Luc contains one consensus ARE and the expression vector, pCMV-hAR constitutively expresses a fully functional human androgen receptor. The pCMV-GFP-rAR was prepared as previously described (30).
as §1

[4] = tested on: PC-3 cells; assay: PC-3 cell growth (cell counting); format: cell-based, human; conditions: 96 h treatment; same concentrations (up to 50 μM)
Method: DIM was prepared from I3C as described (26-28) and recrystallized in toluene. The human prostate adenocarcinoma cell lines LNCaP-FGC and PC-3 were obtained from the American Type Culture Collection (Rockville, Md.). They were grown as adherent monolayers in 10% FBS-DMEM, supplemented with 4.0 g/L glucose and 3.7 g/L sodium bicarbonate in a humidified incubator at 37° C. and 5% CO2 and passaged at approximately 80% confluency. Cultures used in subsequent experiments were at less than 40 passages. Cells grown in stripped conditions were in 5% DCC-FBS-DMEM base supplemented with 4.0 g/L glucose, 3.7 g/L sodium bicarbonate, and 0.293 g/L L-Glutamine.
Cell Growth. Before the beginning of the treatments, cells were depleted of androgen for 4-7 d in medium composed of DMEM base without phenol-red and with 4.0 g/L glucose and 3.7 g/L sodium bicarbonate. During the depletion period, medium was changed every 48 h. Treatments were administered by addition of 1 μL of 1,000× solution in DMSO per mL of medium. Once the treatment period started, medium was changed daily to counter possible loss of readily metabolized compounds.
Cell Counting. Cells were harvested by trypsinization and resuspended in culture medium. Aliquots were diluted 50-fold in Isoton II (Coulter Corp., Miami, Fla.) and 200 μL duplicates were counted in a model Z1 Coulter particle counter and averaged.

[5] = tested on: PSA gene expression; assay: Northern blot of endogenous PSA mRNA in LNCaP cells; format: cell-based, human
Method: RNA Extraction, mRNA Purification and Northern Hybridization. mRNA isolation and Northern blot analyses were conducted as described previously (20, 31). PSA cDNA and the cDNA probes were biotinylated using NEBlot Phototope kit (New England Biolabs, Beverly, Mass.), purified via precipitation with 3 M sodium acetate (pH 5.2) and washed with 70% ethanol. After hybridization with cDNA probes, the membrane was incubated with streptavidin then biotinylated with alkaline phosphatase followed by the Phototope-CDP-Star assay (New England Biolabs, Beverly, Mass.), and autoradiographed. The amount of mRNA was quantified by Gel Densitometer (Bio-Rad) and normalized with β-actin as an internal control.

[6] = tested on: breast cancer cells; conditions: in culture; cited from earlier work

In the case of `c1ccc2c(Cc3c[nH]c4ccccc34)c[nH]c2c1` [DIM, 3,3′-diindolylmethane], the “distribution of GFP-AR fluorescence” value ([1]; DIM alone) is reported as “predominantly cytoplasmic distribution”, the “formation of AR foci in the nucleus” value ([1]; DIM treatment with DHT) is reported as “prevented the formation of AR foci” and the “inhibition of AR translocation induced by DHT” value ([1]; co-treatment with 50 μM DIM and 1 nM DHT) is reported as “partially inhibited”. The “levels of intracellular and secreted PSA protein” value [2] was “reduced levels of intracellular and secreted PSA protein to background concentrations”, the “inhibition of DHT-induced transactivation” value [3] was “concentration-dependent inhibition” and the “effects on the growth of PC-3 cells” value [4] was “no observable effects”. For the same compound, the “inhibition of PSA mRNA induction by DHT” value ([5]; 24 h co-treatment with DIM) was “up to 80%”, the “decrease in PSA mRNA levels” value ([5]; DIM treatment, concentration- and time-dependent) was “up to 70%” and the “programmed cell death in human breast tumor cells” value [6] was “induced programmed cell death”. For the same compound, the “proliferation of breast cancer cells” value [6] was “inhibit proliferation”.
